According to patent US6541463B1, “Inhibitors of type 5 and type 3 17β-hydroxysteroid dehydrogenase and methods for their use” (Endorecherche, Inc., priority 1998, dated 2003):
Where two headings read alike, the source gives them in different places.

Target: T1, human type 5 17β-hydroxysteroid dehydrogenase (Homo sapiens, UniProt P42330)
T1 construct: screen again a human placental λgt11 cDNA to get the full length cDNA clone; expressed in transfected cells; host or cells: human embryonal kidney 293 cells (pCMV / pCMV-neo vector)
T1 sequence (P42330 1-323): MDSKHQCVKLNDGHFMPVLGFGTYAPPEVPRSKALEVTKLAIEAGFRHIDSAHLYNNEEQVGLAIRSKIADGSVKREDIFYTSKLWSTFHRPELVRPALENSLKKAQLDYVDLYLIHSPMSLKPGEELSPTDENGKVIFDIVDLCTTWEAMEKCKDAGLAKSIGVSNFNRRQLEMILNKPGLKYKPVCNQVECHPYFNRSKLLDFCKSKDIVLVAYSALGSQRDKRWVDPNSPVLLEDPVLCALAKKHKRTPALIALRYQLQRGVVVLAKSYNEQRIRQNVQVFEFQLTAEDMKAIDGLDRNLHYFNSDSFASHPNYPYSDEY
Assay: Inhibition of human type 5 17β-HSD activity in transfected 293 cells
Type: cell-based
Design: Inhibition Type V 17B-HSD % Inh. At 3 · 10^−7 (second value in parentheses): concentration or dose not given beside the values
Procedure: The manner in which IC50 was determined is described in “Efficacy of the Preferred Inhibitors”. Lower numbers for IC50 are desirable.
Using a oligoprimer pair (5′-GGA-AAT-CGT-GAC-AGG-GAA-TGG-ATT-CCA-AAC-AG-3′, 5′-GGA-ATT-CTT-TAT-TGT-ATT-TCT-GGC-CTA-TGG-AGT-GAG-3′) derived from human aldoketoreductase (Qin et al., J. Steroid Biochem. Molec. Biol. 46: 673-679, 1993) and polymerase chain reaction (PCR), we have amplified from a human placental λgt11 cDNA library (Clontech Laboratories Inc., Palo Alto, Calif.) a cDNA fragment that was used as probe to screen again a human placental λgt11 cDNA to get the full length cDNA clone. The amplified cDNA fragment was purified on agarose gel and labeled with [α^32P]dCTP (Amersham Corp.) using the random primer labeling kit from Pharmacia Inc. PCR amplification reaction medium contained 50 mM KCl, 10 mM Tris-HCl, pH 8.3, 0.1% gelatin, 1 mM MgCl2, 250 μM dNTP, 0.25 μM oligonucleotide primers, and 200 ng of DNA prepared from human placental λgt11 cDNA library. The aqueous phase was overlaid with 75 μL of mineral oil to avoid evaporation. The mixture was heated at 98° C. for 5 min, following the temperature reduction to 72° C., 1 unit of Taq DNA polymerase was added. Using a DNA Thermal Cycler (Perkin-Elmer Corp.), 30 cycles of amplification were carried out using a step program (94° C., 1 min; 60° C., 1 min; and 72° C., 1 min)/cycle.
Approximately 5×10^5 recombinant phage plaques were screened with 1.5×10^6 cpm/ml of the probe. Prehybridization was performed for 4 h at 42° C. in 50% formamide, 5× Denhardt's solution (1× Denhardt's being 0.02% polyvinyl pyrrolidone, 0.02 Ficoll, 0.02 bovine serum albumin), 5×SSPE (1×SSPE being 0.18M NaCl, 10 mM NaH2PO4, pH 7.4, 1 mM EDTA), 0.1% SDS, and 100 μg/ml yeast tRNA. The probe was denatured by heating at 100° C. for 5 min, before being added to the hybridization solution at 42° C. overnight. Filters were then washed twice at room temperature in 2×SSC (1×SSC being […], pH 7.0), 0.1% SDS, and twice in 0.1×SSC, 0.1% SDS at 60° C. Positive recombinant plaques were purified by replating twice and grown in liquid culture. Phage DNA were isolated by centrifugation for 90 min at 105,000×g, and DNA was then isolated by phenol extraction and precipitation with isopropanol (Karen et al. 1987; In: Current Protocols in Molecular Biology (F. M. Ausubel, R. Brent, E. Kingston, D. D. Moore, T. G. Seidman, T. A. Smith and K. Struhl, eds), Wiley & Sons, New York, pp. 1.13.1-1.13.6).
The phage DNA were digested with EcoRI restriction enzymes and the resulting cDNA fragments were inserted into the EcoRI site downstream to the cytomegalovirus (CMV) promoter of the pCMV vector (kindly provided by Dr. Matthew, Cold Spring Harbor, N.Y., USA). Recombinant pCMV plasmids were amplified in Escherichia Coli DH5α competent cells, and were isolated by alkaline lysis procedure (Maniatis et al., In: Molecular cloning: a laboratory manual, Cold Spring Harbor Laboratory., 1982). Sequencing of double-stranded plasmid DNA was performed according to the dideoxy chain termination method (Sanger et al., PNAS 74: 5453-5467, 1977) using a T7 DNA polymerase sequencing kit (Pharmacia LKB Biotechnology). To avoid errors, all sequences were determined by sequencing both strands of the DNA. Oligonucleotide primers were synthesized in our laboratory with a 394 DNA/RNA synthesizer (Applied Biosystem).
The pCMV vector contain 576 nucleotides of the pCMV promoter (followed by 432 bp of small t intron (fragment 4713-4570) and poly adenylation signal (2825-2536)of SV40, followed by 1989 bp of the Pvu II(628)-AatII (2617) fragment from pUC 19 vector (New England Biolabs) that contains an E. Coli origin of replication and an ampicillin resistance gene for propagation in E. Coli. […]

[1] = Inhibition Type V 17β-HSD IC50, Table 4′
[2] = Table 4′, read-out: Inhibition Type V 17β-HSD IC50
[3] = read-out: Inhibition Type V 17β-HSD IC50
[4] = read-out: Inhibition Type V 17B-HSD IC50

SMILES	IC50 [2]	other results
COCCOc1cc2c(cc1C#N)C1CC[C@@]3(C)C(CC[C@@]34CCC(C)(C)C(=O)O4)C1CC2 (stereo partly drawn) [EM-1396]	–	IC50 [1]: 13 nM
CC1(C)CCC2(CCC3C4CCc5cc(C(=O)OCc6ccccc6)ccc5C4CCC32C)OC1=O (stereo not drawn) [EM-1398]	–	Inhibition Type V 17β-HSD % Inh. at 3 · 10^−6 (Table 4′): 89%; Inhibition Type V 17β-HSD % Inh. at 3 · 10^−7 (Table 4′, 3 · 10^−7): 70%
CC1(C)CCC2(CCC3C4CCc5cc(O)c(C#N)cc5C4CCC32C)OC1=O (stereo not drawn) [EM-01645]	4.5 ± 0.3 nM	–
COC(=O)C1CCC2(CCC3C4CCc5cc(O)ccc5C4CCC32C)OC1=O [PB-132-146, 3-Hydroxy-1,3,5(10)-estratrien-17(R)-2′-(5′-methoxycarbonyl-6′-oxo)tetrahydropyran]	72 ± 3 nM	–
CC1(C)CC[C@@]2(CCC3C4CCc5cc6oncc6cc5C4CC[C@@]32C)OC1=O (stereo partly drawn) [EM-1407-CS, 1,3,5(10)-estratrien-(2,3-oximino)-17(R)-spiro-2′-(5′,5′-dimethyl-6′-oxo)tetrahydropyran]	12 ± 3 nM	–
CCS(=O)(=O)Oc1ccc2c(c1)CCC1C2CCC2(C)C1CCC21CCC(C)(C)C(=O)O1 (stereo not drawn) [EM-1364-CS]	17 nM	–
CC1(C)CCC2(CCC3C4CCc5cc(O)c([N+](=O)[O-])cc5C4CCC32C)OC1=O (stereo not drawn) [EM-1125-CS]	2 nM	–
COCCOc1ccc2c(c1)CCC1C2CCC2(C)C1CCC21CCC(C)(C)C(=O)O1 [EM-1368-CS, 3-Methoxyethoxy-1,3,5(10)-estratrien-17(R)-spiro-2′-(5′,5′-dimethyl-6′-oxo)-tetrahydropyran]	21 nM	–
CCC(=O)O[C@]1(C(C)=O)CCC2C3C=C(C)C4=CC(=O)C[C@H](C)[C@]4(C)C3CC[C@@]21C (stereo partly drawn) [CS-243]	–	IC50 [3]: 3.5 ± 0.1 nM
CN(C)CCOc1ccc2c(c1)CCC1C2CCC2(C)C1CCC21CCC(C)(C)C(=O)O1 (stereo not drawn) [EM-1389-CS]	25 nM	–
CC(=O)O[C@]1(C(=O)N(C)C)CCC2C3C=C(C)C4=CC(=O)CC[C@]4(C)C3CC[C@@]21C (stereo partly drawn) [EM-1159]	–	IC50 [3]: 14 ± 2 nM
COC(=O)CCCC(=O)O[C@]1(C(C)=O)CC[C@H]2[C@@H]3C=C(C)C4=CC(=O)CC[C@]4(C)[C@H]3CC[C@@]21C [EM-1007, 6-Methyl-4,6-pregnadien-17α-ol-3,20-dione 4′-Carbomethoxybutyrate]	–	Inhibition Type V 17β-HSD % Inh. (at 3.10^−6): 86) %; Inhibition Type V 17β-HSD % Inh. (at 3.10^−7): (81%
CC1(C)CC[C@@]2(CC[C@H]3[C@@H]4CCc5c(cc(Br)c(O)c5Br)[C@H]4CC[C@@]32C)OC1=O [EM-1382-CS]	–	Inhibition Type V 17β-HSD % Inh. at 3 · 10^−6 (Table 4′): 86%; Inhibition Type V 17β-HSD % Inh. at 3 · 10^−7 (Table 4′, 3 · 10^−7): 74%
COCCOc1cc2c(cc1C(=O)O)C1CCC3(C)C(CCC34CCC(C)(C)C(=O)O4)C1CC2 [EM-1405, 2-Carboxy-3-(2″-methoxyethyloxy)-1,3,5(10)-estratrien-17(R)-spiro-2′-(5′,5′-dimethyl-6′-oxo)tetrahydropyran]	23 nM	–
C=CCC1CCC2(CCC3C4CCc5cc(O)ccc5C4CCC32C)OC1=O [PB-132-152, 3-Hydroxy-1,3,5(10)-estratrien-17(R)-2′-(5′-allyl-6′-oxo)tetrahydropyran]	107 ± 9 nM	–
COCCOc1cc2c(cc1F)C1CCC3(C)C(CCC34CCC(C)(C)C(=O)O4)C1CC2 (stereo not drawn) [EM-1393-CS]	16 nM	–
COc1cc2c(cc1C)C1CCC3(C)C(CCC34CCC(C)(C)C(=O)O4)C1CC2 (stereo not drawn) [EM-1412-CS]	54 nM	–

SMILES	IC50 [2]	other results
COc1ccc2c(c1)CCC1C2CCC2(C)C1CCC21CCC(C)(C)C(=O)O1 (stereo not drawn) [EM-1370]	43 nM	–
CC1(C)CC[C@@]2(CCC3C4CCc5cc(C(N)=O)ccc5C4CCC32C)OC1=O (stereo partly drawn) [EM-1404]	–	IC50 [1]: 3.2 ± 1.5 nM
CN(C)C(=O)c1cc2c(cc1O)CCC1C2CCC2(C)C1CCC21CCC(C)(C)C(=O)O1 (stereo not drawn) [EM-01661-B]	19.2 ± 1 nM	–
CCCC(=O)O[C@]1(C)C(=O)CCC2C3C=C(C)C4=CC(=O)CC[C@]4(C)C3CC[C@@]21C (stereo partly drawn) [EM-1078]	–	IC50 [4]: 3.8 ± 0.6 nM
CC(=O)O[C@]1(C(C)=O)CCC2C3C=C(C)C4=CC(=O)CC[C@]4(C)C3CC[C@@]21C (stereo partly drawn) [megestrol acetate, reference compound]	–	inhibition of type 5 17β-hydroxysteroid dehydrogenase (in words): inhibit that type 5 enzyme; IC50 [3]: 17.4 ± 2.8 nM
CC1CCC2(CCC3C4CCc5cc(O)c([N+](=O)[O-])cc5C4CCC32C)OC1=O [EM-1131, 2-Nitro-1,3,5(10)-estratrien-3-ol-17(R)-spiro-2′-(5′-methyl-6′-oxo)tetrahydropyran]	3 nM	–
COCCOc1cc2c(cc1C(N)=O)C1CC[C@@]3(C)C(CC[C@@]34CCC(C)(C)C(=O)O4)C1CC2 (stereo partly drawn) [EM-1424, 2-Carbamoyl-3-(2″-methoxyethyloxy)-1,3,5(10)-estratrien 17(R)-spiro-2′-(5′,5′-dimethyl-6′-oxo)tetrahydropyran]	9.5 nM	–
CC1CCC2(CCC3C4CCc5cc(O)c([N+](=O)[O-])cc5C4CCC32C)OC1=O [EM-1126, 2-Nitro-1,3,5(10)-estratrien-3-ol-17(R)-spiro-2′-(5′-methyl-6′-oxo)tetrahydropyran]	6 ± 1 nM	–
CC1(C)CCC2(CCC3C4CCc5cc(O)c(C(N)=O)cc5C4CCC32C)OC1=O (stereo not drawn) [EM-01660]	5.6 ± 0.4 nM	–
CC1(C)CC[C@@]2(CCC3C4CCc5cc(C(=O)O)ccc5C4CC[C@@]32C)OC1=O (stereo partly drawn) [EM-1401, 3-Carboxy-1,3,5(10)-estratrien-17(R)-spiro-2′-(5′,5′-dimethyl-6′-oxo)tetrahydropyran]	4 ± 1.5 nM	–
COc1ccc(CC(=O)O[C@]2(C(C)=O)CCC3C4C=C(C)C5=CC(=O)C=C[C@]5(C)C4CC[C@@]32C)cc1 (stereo partly drawn) [EM-1291]	–	IC50 [3]: 7 ± 1 nM
CC1=C[C@@H]2[C@H](CC[C@]3(C)C(=O)C4(CCCCC4)C[C@@H]23)[C@@]2(C)CCC(=O)C=C12 [EM-925]	–	Inhibition Type V 17B-HSD % Inh. At 3 · 10^−7 (first value in parentheses) (first of two concentrations, 3 · 10^−7): (46%; Inhibition Type V 17B-HSD % Inh. At 3 · 10^−7 (second value in parentheses) (second of two concentrations, 3 · 10^−7): 81) %
COc1cc2c(cc1C(F)(F)F)C1CCC3(C)C(CCC34CCC(C)(C)C(=O)O4)C1CC2 [EM-1409, 3-Methoxy-2-trifluoromethyl-1,3,5(10)-estratrien-17(R)-spiro-2′-(5′,5′-dimethyl-6′-oxo)tetrahydropyran]	170 ± 70 nM	–
CCC[C@@H]1CC2C3C=CC4=CC(=O)CC[C@]4(C)C3CC[C@]2(C)C1=O (stereo partly drawn) [EM-1097]	–	IC50 [4]: 10 nM
CC12CCC3c4ccc(F)cc4CCC3C1CCC21CCCC(=O)O1 (stereo not drawn) [EM-1170-CS]	7 ± 1 nM	–
CC1(C)CCC2(CCC3C4CCc5cc(OS(C)(=O)=O)ccc5C4CCC32C)OC1=O (stereo not drawn) [EM-1365-CS]	12 nM	–
COCCOc1cc2c(cc1C(=O)N(C)C)C1CCC3(C)C(CCC34CCC(C)(C)C(=O)O4)C1CC2 (stereo not drawn) [EM-1413-CS]	17 nM	–
